Results on 18 compounds are retold here after US9562035B2, “Benzamide derivative useful as FASN inhibitors for the treatment of cancer” (Janssen Pharmaceutica NV, priority 2013, dated 2017).

The target of assay [1] is T1, hFASN enzyme (full length) (Homo sapiens, UniProt P49327).
T1 construct: 10 μL hFASN enzyme (full length, 300 ng, purified in house); made in house
Put plainly: Fatty Acid Synthase (FASN) Inhibition Scintillation Proximity Assay. It counts as biochemical. The settings on record: for IC50: mean where tested more than once, ~ = standard error of pIC50 larger than 0.5; for inhibition at 10 µM: read-out: FASN % Effect @1E−05M. The gist of the method:
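Purified full-length human FASN (300 ng) incubated 60 min at room temperature with NADPH, [3H]-acetyl-CoA and malonyl-CoA in 100 mM KH2PO4 pH 7.5, 1 mM DTT; compound at 30 μM to 0.01 μM. [3H]-palmitate captured by SPA imaging beads; IC50 from 4-parameter fit, reported as pIC50.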

Assay [2] has as its target T2, FASN Keto-reductase Domain (Homo sapiens, UniProt P49327).
T2 construct: 10 μL hFASN enzyme (full length, 300 ng, purified in house) and 360 μM NADPH; made in house
Put plainly: Fatty Acid Synthase Keto-Reductase Domain (FASN KR) Inhibition. The conditions noted are these: mean where tested more than once; read-out: FASN K-R Domain pIC50 (converted). It counts as biochemical. In a few lines: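 Full-length human FASN (300 ng) in 100 mM KH2PO4 pH 7.5 with 360 μM NADPH and 180 mM ethyl acetoacetate (stock); A340 decrease read over 20 min at room temperature.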

The subject of assay [3] is A2780 ovarian cells. Put plainly: A2780 Ovarian Cell Proliferation Assay in Lipid Reduced Medium, without Palmitate. It counts as cell-based. The settings on record: Homo sapiens, A2780; lipid reduced medium, without palmitate, 96 h, MTT; read-out: Proliferation A2780 w/o Palmitate pIC50 (converted). In a few lines: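 A2780 cells were seeded in 10% FCS medium and switched next day to 10% lipid-reduced serum without palmitate. Compounds at 0.01–30 μM were added with 0.2% DMSO, 0.2% fatty-acid-free BSA and 0.25% ethanol final. After 96 h, MTT absorbance at 544 nm was normalized to plate controls, and IC50/pIC50 came from a 4-parameter logistic fit.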

The test system of assay [4] is A2780 ovarian cells. Put plainly: A2780 Ovarian Cell Proliferation Assay in Lipid Reduced Medium, with Palmitate (control). It counts as cell-based. The settings on record: Homo sapiens, A2780; lipid reduced medium, 25 μM palmitate, 96 h, MTT; read-out: Proliferation A2780 with Palmitate pIC50 (converted). The gist of the method:
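A2780 cells were seeded in RPMI1640 with 10% FCS, then switched next day to medium with 10% lipid-reduced serum. Compound was added with final 25 μM palmitate, 0.2% fatty-acid-free BSA and 0.2% DMSO, and incubated 96 h at 37 °C. Read-out was MTT absorbance at 544 nm; pIC50 = −log(IC50) from curve fit.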

Structures are written as SMILES. Some results are limits rather than exact numbers.

T2 sequence (P49327 whole entry, the tested form may be a part): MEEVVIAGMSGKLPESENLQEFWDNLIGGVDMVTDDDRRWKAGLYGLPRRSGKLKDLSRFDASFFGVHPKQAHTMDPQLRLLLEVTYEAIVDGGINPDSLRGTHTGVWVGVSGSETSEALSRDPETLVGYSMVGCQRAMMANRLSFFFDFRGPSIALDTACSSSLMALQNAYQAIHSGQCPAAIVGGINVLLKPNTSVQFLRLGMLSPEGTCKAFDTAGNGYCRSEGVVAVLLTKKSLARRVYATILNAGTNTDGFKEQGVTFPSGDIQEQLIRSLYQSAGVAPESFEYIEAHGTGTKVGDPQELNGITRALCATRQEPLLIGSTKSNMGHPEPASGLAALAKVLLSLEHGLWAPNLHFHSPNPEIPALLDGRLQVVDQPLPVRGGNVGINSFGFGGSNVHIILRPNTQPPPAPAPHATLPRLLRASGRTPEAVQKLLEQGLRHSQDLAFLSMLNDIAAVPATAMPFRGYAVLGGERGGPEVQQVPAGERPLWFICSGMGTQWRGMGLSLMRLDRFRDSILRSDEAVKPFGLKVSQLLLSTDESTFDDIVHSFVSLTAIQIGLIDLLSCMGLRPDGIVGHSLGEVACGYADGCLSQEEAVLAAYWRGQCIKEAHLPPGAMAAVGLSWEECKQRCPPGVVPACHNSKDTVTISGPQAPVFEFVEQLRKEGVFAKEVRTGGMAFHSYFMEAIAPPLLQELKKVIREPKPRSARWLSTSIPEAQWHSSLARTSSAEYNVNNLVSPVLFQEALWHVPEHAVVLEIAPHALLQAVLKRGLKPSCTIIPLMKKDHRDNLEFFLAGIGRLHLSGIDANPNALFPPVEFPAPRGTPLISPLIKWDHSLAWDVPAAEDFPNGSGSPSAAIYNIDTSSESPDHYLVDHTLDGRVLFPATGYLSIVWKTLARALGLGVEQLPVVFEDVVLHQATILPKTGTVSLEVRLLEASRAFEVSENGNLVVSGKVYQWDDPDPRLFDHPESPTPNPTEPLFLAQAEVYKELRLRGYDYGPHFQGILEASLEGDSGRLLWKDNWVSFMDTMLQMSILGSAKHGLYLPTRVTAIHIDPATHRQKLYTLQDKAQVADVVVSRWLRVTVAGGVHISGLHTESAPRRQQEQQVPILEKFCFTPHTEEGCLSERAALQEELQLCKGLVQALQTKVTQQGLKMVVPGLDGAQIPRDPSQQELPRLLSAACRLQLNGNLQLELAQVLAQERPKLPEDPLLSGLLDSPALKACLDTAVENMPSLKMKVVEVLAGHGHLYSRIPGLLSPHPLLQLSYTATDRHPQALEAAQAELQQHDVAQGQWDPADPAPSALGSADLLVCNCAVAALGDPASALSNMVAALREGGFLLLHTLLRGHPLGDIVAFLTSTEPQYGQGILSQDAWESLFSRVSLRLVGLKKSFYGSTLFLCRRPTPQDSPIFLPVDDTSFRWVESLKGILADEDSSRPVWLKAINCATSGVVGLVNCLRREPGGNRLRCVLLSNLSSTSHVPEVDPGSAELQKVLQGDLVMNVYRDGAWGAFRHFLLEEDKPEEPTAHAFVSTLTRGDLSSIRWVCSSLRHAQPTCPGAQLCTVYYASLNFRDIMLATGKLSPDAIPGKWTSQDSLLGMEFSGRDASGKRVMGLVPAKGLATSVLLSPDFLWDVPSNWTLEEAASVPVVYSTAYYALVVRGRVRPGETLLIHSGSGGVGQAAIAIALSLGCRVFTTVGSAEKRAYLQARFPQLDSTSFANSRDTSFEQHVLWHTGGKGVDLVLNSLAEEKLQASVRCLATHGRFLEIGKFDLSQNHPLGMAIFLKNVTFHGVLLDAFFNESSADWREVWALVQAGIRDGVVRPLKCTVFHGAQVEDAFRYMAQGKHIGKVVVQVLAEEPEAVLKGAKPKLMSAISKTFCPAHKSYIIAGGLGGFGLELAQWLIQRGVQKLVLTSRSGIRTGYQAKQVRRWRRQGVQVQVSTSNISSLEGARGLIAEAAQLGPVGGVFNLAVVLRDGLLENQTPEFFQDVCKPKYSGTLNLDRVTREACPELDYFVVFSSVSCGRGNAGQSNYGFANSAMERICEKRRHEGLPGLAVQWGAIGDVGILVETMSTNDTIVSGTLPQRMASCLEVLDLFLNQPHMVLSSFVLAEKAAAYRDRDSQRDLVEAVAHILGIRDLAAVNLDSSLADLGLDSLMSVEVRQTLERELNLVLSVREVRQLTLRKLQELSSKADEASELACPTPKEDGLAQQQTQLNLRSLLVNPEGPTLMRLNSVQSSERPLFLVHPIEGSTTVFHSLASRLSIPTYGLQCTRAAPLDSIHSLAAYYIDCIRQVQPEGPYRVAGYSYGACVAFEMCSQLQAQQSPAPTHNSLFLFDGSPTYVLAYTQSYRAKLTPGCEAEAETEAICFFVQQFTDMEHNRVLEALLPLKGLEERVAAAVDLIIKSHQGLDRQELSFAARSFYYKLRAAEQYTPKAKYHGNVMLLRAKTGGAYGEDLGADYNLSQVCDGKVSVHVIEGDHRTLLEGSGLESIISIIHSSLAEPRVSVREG
T1 sequence (P49327 whole entry): as the sequence (P49327 whole entry, the tested form may be a part) above

`COc1ccc(C(=O)Nc2cc(C(=O)N3CCC(c4ccc(-c5cnn(C)c5)cc4)CC3)ccc2C)cc1` [Compound 93, 4-methoxy-N-(2-methyl-5-(4-(4-(1-methyl-1H-pyrazol-4-yl)phenyl)piperidine-1-carbonyl)phenyl)benzamide]: the IC50 in assay [1] was 0.0174 µM; in assay [2], 0.0295 µM; in the assay with A2780 ovarian cells [3], 0.0955 µM; with A2780 ovarian cells [4] it was > 10 µM. The inhibition at 10 µM in assay [1] stood at 100%.

Take `COc1cccc(C(=O)Nc2cc(C(=O)N3CCC(c4ccc(-c5cnn(C)c5)cc4)CC3)ccc2C)c1` [Compound 94, 3-methoxy-N-(2-methyl-5-(4-(4-(1-methyl-1H-pyrazol-4-yl)phenyl)piperidine-1-carbonyl)phenyl)benzamide]: the IC50 in assay [1] was 0.0204 µM; in assay [2], 0.0832 µM; with A2780 ovarian cells [3] it was 0.148 µM; with A2780 ovarian cells [4], 7.59 µM. The inhibition at 10 µM in assay [1] is 100%.

For `Cc1ccc(C(=O)N2CCC(c3ccc(-c4cnn(C)c4)cc3)CC2)cc1NC(=O)c1cccc(Cl)c1` [Compound 95, 3-chloro-N-(2-methyl-5-(4-(4-(1-methyl-1H-pyrazol-4-yl)phenyl)piperidine-1-carbonyl)phenyl)benzamide], the IC50 is 0.0263 µM in assay [1], 0.151 µM in assay [2], 0.263 µM in the assay on A2780 ovarian cells [3] and 3.47 µM in the assay with A2780 ovarian cells [4]. Further, the inhibition at 10 µM in assay [1] was determined as 105%.

For `Cc1ccc(C(=O)N2CCC(c3ccc(-c4cnn(C)c4)cc3)CC2)cc1NC(=O)c1ccccc1Cl` [Compound 96, 2-chloro-N-(2-methyl-5-(4-(4-(1-methyl-1H-pyrazol-4-yl)phenyl)piperidine-1-carbonyl)phenyl)benzamide], the IC50 in assay [1] was 0.0316 µM; in assay [2] it was 0.155 µM; in the assay on A2780 ovarian cells [3] it was 0.145 µM; in the assay on A2780 ovarian cells [4] it was > 10 µM. Further, the inhibition at 10 µM in assay [1] was found to be 103%.

In the case of `Cc1ccc(C(=O)N2CC(c3ccc(-c4cnn(C)c4)cc3)C2)cc1NC(=O)c1cccc(C(F)(F)F)n1` [Compound 97, N-(2-methyl-5-(3-(4-(1-methyl-1H-pyrazol-4-yl)phenyl)azetidine-1-carbonyl)phenyl)-6-(trifluoromethyl)picolinamide], the IC50 in assay [1] was 0.17 µM; in assay [2] it was 0.324 µM; with A2780 ovarian cells [3] it was 0.501 µM; in the assay with A2780 ovarian cells [4] it was 6.03 µM. Also, the inhibition at 10 µM in assay [1] is 89%.

`Cc1cc(C(=O)Nc2cc(C(=O)N3CCC(c4ccc(-c5cnn(C)c5)cc4)CC3)ccc2C)ccn1` [Compound 98, 2-methyl-N-(2-methyl-5-(4-(4-(1-methyl-1H-pyrazol-4-yl)phenyl)piperidine-1-carbonyl)phenyl)isonicotinamide]: the IC50 in assay [1] was 0.0302 µM; in assay [2], 0.0912 µM; in the assay with A2780 ovarian cells [3] it was 0.0468 µM; with A2780 ovarian cells [4] it was 1.2 µM. Also, in assay [1], the inhibition at 10 µM is 102%.

As for `Cc1ccc(C(=O)N2CCC(c3ccc(-c4cnn(C)c4)cc3)CC2)cc1NC(=O)c1sccc1Cl` [Compound 99, 3-chloro-N-(2-methyl-5-(4-(4-(1-methyl-1H-pyrazol-4-yl)phenyl)piperidine-1-carbonyl)phenyl)thiophene-2-carboxamide], the IC50 in assay [1] was 0.107 µM; in assay [2], 0.295 µM; in the assay on A2780 ovarian cells [3], 0.389 µM; in the assay with A2780 ovarian cells [4], 6.31 µM. Besides, the inhibition at 10 µM in assay [1] is 92%.

Consider `Cc1ccc(C(=O)N2CCC(c3ccc(-c4cnn(C)c4)cc3)CC2)cc1NC(=O)c1cccnc1Cl` [Compound 101, 2-Chloro-N-(2-methyl-5-(4-(4-(1-methyl-1H-pyrazol-4-yl)phenyl)piperidine-1-carbonyl)phenyl)nicotinamide], for which the IC50 in assay [1] is 0.0479 µM; in assay [2], 0.155 µM; in the assay with A2780 ovarian cells [3] it was 0.0912 µM; with A2780 ovarian cells [4], > 10 µM. Besides, the inhibition at 10 µM in assay [1] was 105%.

Take `Cc1ccc(C(=O)N2CCC(c3ccc(-c4cnn(C)c4)cc3)CC2)cc1NC(=O)c1ccc(Cl)nc1` [Compound 102, 6-Chloro-N-(2-methyl-5-(4-(4-(1-methyl-1H-pyrazol-4-yl)phenyl)piperidine-1-carbonyl)phenyl)nicotinamide]: the IC50 was 0.0186 µM in assay [1], 0.038 µM in assay [2], 0.0363 µM with A2780 ovarian cells [3] and > 10 µM with A2780 ovarian cells [4]. For the same compound, in assay [1], the inhibition at 10 µM came to 105%.

Regarding `COc1cc(C(=O)Nc2cc(C(=O)N3CCC(c4ccc(-c5cnn(C)c5)cc4)CC3)ccc2C)cc(Cl)n1` [Compound 103, 2-Chloro-6-methoxy-N-(2-methyl-5-(4-(4-(1-methyl-1H-pyrazol-4-yl)phenyl)piperidine-1-carbonyl)phenyl)isonicotinamide], the IC50 in assay [1] is 0.0759 µM; in assay [2] it was 0.148 µM; in the assay on A2780 ovarian cells [3], 0.141 µM; in the assay with A2780 ovarian cells [4], 4.57 µM. Moreover, the inhibition at 10 µM in assay [1] was found to be 95%.

On to `Cc1ccc(C(=O)N2CCC(c3ccc(-c4cnn(C)c4)cc3)CC2)cc1NC(=O)C1CCOCC1` [Compound 104, N-(2-methyl-5-(4-(4-(1-methyl-1H-pyrazol-4-yl)phenyl)piperidine-1-carbonyl)phenyl)tetrahydro-2H-pyran-4-carboxamide], for which the IC50 in assay [1] was 0.0427 µM; in assay [2], 0.0871 µM; with A2780 ovarian cells [3], 0.0708 µM; in the assay with A2780 ovarian cells [4] it was > 10 µM. In assay [1], the inhibition at 10 µM is 104%.

For the compound `COc1ccccc1C(=O)Nc1cc(C(=O)N2CCC(c3ccc(-c4cnn(C)c4)cc3)CC2)ccc1C` [Compound 105, 2-methoxy-N-(2-methyl-5-(4-(4-(1-methyl-1H-pyrazol-4-yl)phenyl)piperidine-1-carbonyl)phenyl)benzamide], the IC50 was 0.309 µM in assay [1], 0.617 µM in assay [2], 0.955 µM in the assay on A2780 ovarian cells [3] and 3.02 µM in the assay with A2780 ovarian cells [4]. Besides, the inhibition at 10 µM in assay [1] came out at 86%.

`Cc1ccc(C(=O)N2CC(c3ccc(-c4cnn(C)c4)cc3)C2)cc1NC(=O)c1ccc(N2CCCC2)nc1` [Compound 106, N-(2-methyl-5-(3-(4-(1-methyl-1H-pyrazol-4-yl)phenyl)azetidine-1-carbonyl)phenyl)-6-(pyrrolidin-1-yl)nicotinamide]: the IC50 in assay [1] is 0.0107 µM; in assay [2], 0.0245 µM; in the assay on A2780 ovarian cells [3] it was 0.0794 µM; with A2780 ovarian cells [4] it was > 15.1 µM. Also, the inhibition at 10 µM in assay [1] was determined as 113%.

As for `CC(C)Nc1ccc(C(=O)Nc2cc(C(=O)N3CC(c4ccc(-c5ccnn5C)cc4)C3)ccc2Cl)cn1` [Compound 108, N-(2-chloro-5-(3-(4-(1-methyl-1H-pyrazol-5-yl)phenyl)azetidine-1-carbonyl)phenyl)-6-(isopropylamino)nicotinamide], the IC50 in assay [1] was 0.0363 µM; in assay [2], 0.0603 µM; with A2780 ovarian cells [3] it was 0.0933 µM; in the assay on A2780 ovarian cells [4], ~0.407 µM. Further, the inhibition at 10 µM in assay [1] came to 103%.

Regarding `Cc1ccc(C(=O)N2CC(c3ccc(-c4cnn(C)c4)cc3)C2)cc1NC(=O)c1ccc(NC2CCC2)nc1` [Compound 109, 6-(cyclobutylamino)-N-(2-methyl-5-(3-(4-(1-methyl-1H-pyrazol-4-yl)phenyl)azetidine-1-carbonyl)phenyl)nicotinamide], the IC50 was 0.0145 µM in assay [1], 0.0316 µM in assay [2], ~0.0234 µM with A2780 ovarian cells [3] and > 15.1 µM in the assay with A2780 ovarian cells [4]. Also, in assay [1], the inhibition at 10 µM was 119%.

For `COc1ccc(C(=O)Nc2cc(C(=O)N3CCC(c4ccc(-c5cnn(C)c5)cc4)CC3)ccc2C)cn1` [Compound 113, 6-methoxy-N-(2-methyl-5-(4-(4-(1-methyl-1H-pyrazol-4-yl)phenyl)piperidine-1-carbonyl)phenyl)nicotinamide], the IC50 was 0.0288 µM in assay [1], 0.0479 µM in assay [2], 0.0676 µM with A2780 ovarian cells [3] and > 10 µM in the assay with A2780 ovarian cells [4]. In assay [1], the inhibition at 10 µM came out at 104%.

In the case of `Cc1ccc(C(=O)N2CCC(c3ccc(-c4cnn(C)c4)cc3)CC2)cc1NC(=O)c1cnccc1Cl` [Compound 114, 4-chloro-N-(2-methyl-5-(4-(4-(1-methyl-1H-pyrazol-4-yl)phenyl)piperidine-1-carbonyl)phenyl)nicotinamide], the IC50 in assay [1] is 0.316 µM; in assay [2], 0.631 µM; in the assay on A2780 ovarian cells [3], 0.537 µM; in the assay with A2780 ovarian cells [4] it was > 10 µM. Also, the inhibition at 10 µM in assay [1] is 92%.

`Cc1ccc(C(=O)N2CCC(c3ccc(-c4cnn(C)c4)cc3)CC2)cc1NC(=O)c1ccc(F)cc1` [Compound 116, 4-fluoro-N-(2-methyl-5-(4-(4-(1-methyl-1H-pyrazol-4-yl)phenyl)piperidine-1-carbonyl)phenyl)benzamide]: the IC50 was 0.0437 µM in assay [1], 0.0933 µM in assay [2], 0.126 µM with A2780 ovarian cells [3] and > 10 µM with A2780 ovarian cells [4]. In addition, the inhibition at 10 µM in assay [1] stood at 101%.
